# Measured values reported in article PMC6130490, “Inhibition of key enzymes linked to type 2 diabetes by compounds isolated from Aframomum melegueta fruit” (Pharmaceutical Biology, 2017).
# Read-outs that look alike come from different tables or passages of the source.
# Key:
# Assay type in all cases: biochemical
# [1] = molecular target: T1, Saccharomyces cerevisiae α-glucosidase (E.C. 3.2.1.20) (Saccharomyces cerevisiae, UniProt P53341); test: biochemical; conditions: for type of inhibition of α-glucosidase: Lineweaver-Burke plot
# T1 construct: purchased Sigma-Aldrich through Capital Lab Supplies
# T1 sequence (P53341 whole entry): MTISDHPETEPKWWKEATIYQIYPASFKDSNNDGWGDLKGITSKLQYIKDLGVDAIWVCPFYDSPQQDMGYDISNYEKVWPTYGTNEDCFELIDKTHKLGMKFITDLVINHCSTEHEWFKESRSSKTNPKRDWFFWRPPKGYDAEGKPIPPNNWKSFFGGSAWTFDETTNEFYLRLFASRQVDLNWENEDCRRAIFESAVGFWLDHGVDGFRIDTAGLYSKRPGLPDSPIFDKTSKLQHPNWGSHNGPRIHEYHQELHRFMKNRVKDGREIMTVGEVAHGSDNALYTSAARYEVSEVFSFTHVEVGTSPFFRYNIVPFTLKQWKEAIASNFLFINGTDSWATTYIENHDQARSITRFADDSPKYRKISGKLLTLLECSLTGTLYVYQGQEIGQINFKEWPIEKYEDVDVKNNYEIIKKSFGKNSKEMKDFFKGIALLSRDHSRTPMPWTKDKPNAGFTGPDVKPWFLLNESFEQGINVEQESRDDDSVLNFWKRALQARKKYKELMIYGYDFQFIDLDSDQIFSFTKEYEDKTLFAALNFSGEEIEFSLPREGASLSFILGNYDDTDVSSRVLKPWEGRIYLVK
# Procedure: (§1) The 5.0 mM p-nitrophenyl glucopyranoside (pNPG) substrate solution was prepared in 20 mM phosphate buffer, pH 6.9. […] Thereafter, 250 μL of 5.0 mM pNPG was dissolved in 20 mM phosphate buffer (pH 6.9) as a substrate to start the reaction. The reaction mixture was incubated at 37 °C for 30 min.
# (§2) The isolated compounds were subjected to kinetic experiments to determine the type of inhibition exerted on α-amylase and α-glucosidase. The experiment was conducted according to the protocols mentioned above at a constant concentration of the compounds (30 μg/mL) with a variable concentration of substrate. […] The initial velocity data obtained were used to construct Lineweaver-Burke plots to determine the K M (Michaelis constant) and v max (maximum velocity) of the enzyme as well as the Ki (inhibition binding constant as a measure of affinity of the inhibitor to the enzyme) and the type of inhibition for both enzymes.
# [2] = molecular target: T2, porcine pancreatic α-amylase (E.C. 3.2.1.1) (Sus scrofa, UniProt P00690); test: α-Amylase inhibitory effect (starch/DNS method); conditions: mean ± SD of triplicate; compounds tested at 30–240 μg/mL; read-out: IC50 α-amylase inhibition
# T2 construct: purchased Sigma-Aldrich through Capital Lab Supplies
# T2 sequence (P00690 16-511): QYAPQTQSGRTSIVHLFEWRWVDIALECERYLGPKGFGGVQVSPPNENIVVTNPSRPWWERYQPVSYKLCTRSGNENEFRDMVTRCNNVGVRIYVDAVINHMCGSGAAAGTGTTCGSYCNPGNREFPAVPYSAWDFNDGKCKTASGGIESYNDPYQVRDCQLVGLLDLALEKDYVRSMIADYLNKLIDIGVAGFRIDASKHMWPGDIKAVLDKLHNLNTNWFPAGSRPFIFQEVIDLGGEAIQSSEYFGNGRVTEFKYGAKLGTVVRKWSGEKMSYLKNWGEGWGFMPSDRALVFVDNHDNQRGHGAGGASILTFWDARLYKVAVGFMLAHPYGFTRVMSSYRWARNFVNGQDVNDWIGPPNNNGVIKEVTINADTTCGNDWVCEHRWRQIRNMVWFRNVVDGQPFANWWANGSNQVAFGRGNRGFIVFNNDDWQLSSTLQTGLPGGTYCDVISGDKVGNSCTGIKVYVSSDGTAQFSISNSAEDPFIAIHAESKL
# Procedure: (§3) Saccharomyces cerevisiae α-glucosidase (E.C. 3.2.1.20), porcine pancreatic α-amylase (E.C. 3.2.1.1), p-nitrophenyl glucopyranoside (pNPG) and p-nitrophenol were obtained from Sigma-Aldrich through Capital Lab Supplies, New Germany, South Africa. Starch, dinitrosalicylic acid (DNS), maltose, absolute ethanol and ethyl acetate were obtained from Merck Chemical Company, Durban, South Africa.
# (§4) This solution was pre-incubated at 25 °C for 10 min, after which 250 μL of 1% starch solution in 0.02 M sodium phosphate buffer (pH 6.9) was added at a time interval of 10 s and then further incubated at 25 °C for 10 min. The reaction was terminated after incubation by adding 1 mL of dinitrosalicylic acid (DNS) reagent. The tube was then boiled for 10 min and cooled to room temperature. […] A control was prepared using the same procedure using distilled water instead of the compound.
# [3] = molecular target: T1, Saccharomyces cerevisiae α-glucosidase (E.C. 3.2.1.20); test: α-Glucosidase inhibitory effect (pNPG method)
# Procedure: as §3, §1
# [4] = molecular target: T2, porcine pancreatic α-amylase (E.C. 3.2.1.1); test: Mechanism of α-amylase inhibition (Lineweaver-Burke kinetics); conditions: compound 30 μg/mL; for type of inhibition of α-amylase: Lineweaver-Burke plot; for KM, α-amylase inhibition / Ki / Vmax, α-amylase inhibition: starch 0.063–1.0%
# Procedure: as §4, §2
# [5] = compound 30 μg/mL, pNPG 0.313–5.0 mM
# [6] = compound 30 μg/mL, pNPG 0.313–5.0 mM, read-out: Ki, α-glucosidase inhibition (converted)
# [7] = mean ± SD of triplicate, compounds tested at 30–240 μg/mL, read-out: IC50 α-glucosidase inhibition
SMILES,Ki [1] [µM],type of inhibition of α-glucosidase ([1]; compound 30 μg/mL),"Vmax, α-glucosidase inhibition [1, 5] [µmol/min]",IC50 [2] [µM],IC50 [3] [µM],type of inhibition of α-amylase [4],"KM, α-amylase inhibition [4] [%]",Ki [4] [µM],"Vmax, α-amylase inhibition [4] [µmol/min]","Ki [1, 6] [µM]","IC50 [3, 7] [µM]"
"CCCCC[C@H](O)CC(=O)CCc1ccc(O)c(OC)c1 [6-Gingerol (3), 6-gingerol]",26.6,noncompetitive,123.10,81.8 ± 7.79,21.5 ± 0.45,noncompetitive,0.06,89.9,16.73,,
"CC1(C)CC[C@]2(C(=O)O)CC[C@]3(C)C(=CC[C@@H]4[C@@]5(C)CC[C@H](O)C(C)(C)[C@@H]5CC[C@]43C)[C@@H]2C1 [Oleanolic acid (4), oleanolic acid]",,,64.20,,,,,,,,
"CCCCCCCC(=O)CCc1ccc(O)c(OC)c1 [6-Paradol (1), 6-paradol]",,noncompetitive,81.20,665 ± 11.6,,noncompetitive,0.06,83.7,15.60,22.4,243 ± 6.65
"CCCCC/C=C/C(=O)CCc1ccc(O)c(OC)c1 [6-Shagaol (2), 6-shogaol]",,,55.70,443.2 ± 1.38,,mixed,0.09,226,24.10,14.5,326 ± 5.6
